Active and inactive are the calls of the source. The rule behind the calls is not given here.
Molecular target: Influenza A virus M2 proton channel (A/TW/4845/1999 H1N1)
Assay: NMR binding screen, influenza A virus M2 proton channel, Kd (AID 1549)
Details: M2 protein

| SMILES | Kd |
| --- | --- |
| O=S(=O)(c1cccc(Cl)c1)N1CCCC1 | > 4 mM (inactive) |
| O=C(Nc1c[nH]c(=O)[nH]c1=O)c1ccccc1F | > 4 mM (inactive) |
| CN1CCOc2cc(C(=O)O)ccc21 | > 4 mM (inactive) |
| Cn1c(=O)c2[nH]cnc2n(-c2ccccc2)c1=O | > 4 mM (inactive) |
| CC(=O)OC1CCC2(O)CC1(C)CCC1C2CC1(C)C (stereo not given) | > 4 mM (inactive) |
| Cn1c(=O)n(C)c2nc([N+](=O)[O-])c(Cl)cc21 | > 4 mM (inactive) |
| C=C(C)C1CC=C(CO)CC1 (stereo not given) | > 4 mM (inactive) |
| OCCNC(=S)Nc1ccccc1 | > 4 mM (inactive) |
| Cc1ccc2[nH]cc(CCN)c2c1 | > 4 mM (inactive) |
| NC(=O)c1ccc(SCC(=O)O)c([N+](=O)[O-])c1 | > 4 mM (inactive) |
| CN(C)C(=S)Nc1nc2ccccc2s1 | > 4 mM (inactive) |
| COc1ccc(C)cc1S(=O)(=O)Nc1ccccc1C | > 4 mM (inactive) |
| COCC(=O)/C=C1\Sc2ccccc2N1C | > 4 mM (inactive) |
| O=S1(=O)CCC(N2CCCCC2)C1 (stereo not given) | > 4 mM (inactive) |
| Nc1ccc2[nH]ccc2c1 | > 4 mM (inactive) |
| COc1cc2c(cc1-c1coc3c4c(c(OC)cc3c1=O)OC(C)(C)C=C4)OCO2 | > 4 mM (inactive) |
| Cc1cc(=O)oc2cc(O)c(O)cc12 | > 4 mM (inactive) |
| COc1ccc2c(c1O)-c1c(OC)c(OC)cc3c1[C@H](C2)N(C)CC3 | > 4 mM (inactive) |
| Cc1c(C(=O)NCc2ccccn2)oc2ccccc12 | > 4 mM (inactive) |
| O=C1CS/C(=N/S(=O)(=O)c2ccccc2)N1 | > 4 mM (inactive) |
| CCC(=O)NC(=S)Nc1ccc(N2CCOCC2)cc1 | > 4 mM (inactive) |
| COc1cc(C(=S)N2CCC(C(N)=O)CC2)ccc1O | > 4 mM (inactive) |
| COC(=O)C1CSCC1=O (stereo not given) | > 4 mM (inactive) |
| CC(=O)NC1C(=O)Nc2c(C)cc(C)cc21 (stereo not given) | > 4 mM (inactive) |

| SMILES | Kd |
| --- | --- |
| C[N+](C)(C)CC(=O)[O-] | > 4 mM (inactive) |
| c1csc(-c2nnc3ccccn23)c1 | > 4 mM (inactive) |
| COc1cc2c(cc1OC)[C@@H]1C(=O)c3ccc(OC)c(CC=C(C)C)c3O[C@@H]1CO2 | > 4 mM (inactive) |
| CCOC(=O)CC1Sc2ccccc2NC1=O (stereo not given) | > 4 mM (inactive) |
| NC(N)=NOCC[C@H](N)C(=O)O | > 4 mM (inactive) |
| CC(=O)Nc1ccc(-c2nc(C)c(C(C)=O)n2O)cc1 | > 4 mM (inactive) |
| COC(=O)C[C@@H]1C2(C)C(=O)[C@@H](CC3C2CC[C@]2(C)C3CC(=O)O[C@H]2c2ccoc2)[C@H](OC(C)=O)C1(C)C (stereo not given in full) | > 4 mM (inactive) |
| O=C(Nc1ccccc1F)c1ccncc1 | > 4 mM (inactive) |
| NCc1nc2ccccc2s1 | > 4 mM (inactive) |
| O=C(NCc1ccccc1F)c1cccs1 | > 4 mM (inactive) |
| O=C(O)c1ccc2[nH]c3c(c2c1)CSCC3 | > 4 mM (inactive) |
| Nc1cc(=O)[nH]c(=S)n1-c1ccc(F)cc1 | > 4 mM (inactive) |
| O=C1C2CC=CCC2C(=O)N1c1cccc(O)c1 (stereo not given) | > 4 mM (inactive) |
| O=C(Nc1nncs1)c1c(F)cccc1F | > 4 mM (inactive) |
| c1ccc2c(c1)CN1CCCC1=N2 | > 4 mM (inactive) |
| OCc1ccc2c(c1)OCO2 | > 4 mM (inactive) |
| Cc1c(C)[n+]([O-])c(-c2ccc([N+](=O)[O-])cc2)n1O | > 4 mM (inactive) |
| Cc1cc(=O)n2[nH]c(N)nc2n1 | > 4 mM (inactive) |
| S=c1[nH]ncn1-c1ccccc1 | > 4 mM (inactive) |
| c1ccc(-c2n[nH]c(-c3ccccn3)n2)nc1 | > 4 mM (inactive) |
| CNC(=O)c1c(O)c2ccccc2[nH]c1=O | > 4 mM (inactive) |
| CC(=O)Nc1ccn(Cc2c(F)cccc2Cl)n1 | > 4 mM (inactive) |
| c1cncc(C(N2CCOCC2)N2CCOCC2)c1 | > 4 mM (inactive) |
| c1ccc(CCc2nc(-c3ccccn3)no2)cc1 | > 4 mM (inactive) |

| SMILES | Kd |
| --- | --- |
| O=c1[nH]cc(COCc2ccccc2)c(=O)[nH]1 | > 4 mM (inactive) |
| c1ccn(Cc2ccncc2)c1 | > 4 mM (inactive) |
| CN(C(=O)c1cc2cccnc2n(C)c1=O)c1ccccc1 | > 4 mM (inactive) |
| O=C1NC(=S)N/C1=C/c1ccsc1 | > 4 mM (inactive) |
| Cc1onc(-c2ccc(F)cc2)c1C(=O)O | > 4 mM (inactive) |
| O=C1CSC(=Nc2ccccc2[N+](=O)[O-])N1 | > 4 mM (inactive) |
| CN1CCN(CC(=O)NC2CCCCC2)CC1 | > 4 mM (inactive) |
| Oc1ccc(/C=C/c2cc(O)cc(O)c2)cc1 | > 4 mM (inactive) |
| O=S(=O)(O)c1cc[n+]([O-])cc1 | > 4 mM (inactive) |
| Cc1cc(C(=O)N2CCCCCC2)cs1 | > 4 mM (inactive) |
| Oc1ccc(C(=S)N2CCOCC2)cc1 | > 4 mM (inactive) |
| Nc1cccc(S(N)(=O)=O)c1 | > 4 mM (inactive) |
| O=C(O)c1ccc2snnc2c1 | > 4 mM (inactive) |
| C1CCN2C[C@@H]3C[C@H](CN4CCCC[C@@H]34)[C@H]2C1 | > 4 mM (inactive) |
| O=C(NN=C1CCCC1)c1ccncc1 | > 4 mM (inactive) |
| COC(=O)CCSCC(=O)Nc1nnc(C)s1 | > 4 mM (inactive) |
| CCOc1ccc(C(=O)c2ccc(O)c(O)c2O)cc1 | > 4 mM (inactive) |
| Cn1cnc2nc3n(c2c1=O)CCC3 | > 4 mM (inactive) |
| O=C(COc1ccccc1O)NCCO | > 4 mM (inactive) |
| NCc1csc2ccccc12 | > 4 mM (inactive) |
| COC(=O)CCSCC(=O)Nc1nccs1 | > 4 mM (inactive) |
| COc1ccc(C)cc1S(=O)(=O)N1CCCCC1 | > 4 mM (inactive) |
| CC12CN3CC(C)(CN(C1)C3c1cccs1)C2O (stereo not given) | > 4 mM (inactive) |
| O=C(NCc1cccc(Cl)c1)c1cnccn1 | > 4 mM (inactive) |

| SMILES | Kd |
| --- | --- |
| COc1cc2ccc(=O)oc2c2ccoc12 | > 4 mM (inactive) |
| Nc1nc(N)nc(N2C(=O)c3ccccc3C2=O)n1 | > 4 mM (inactive) |
| Cc1n[nH]c(C)c1N | > 4 mM (inactive) |
| Cc1ccccc1-n1c(-c2cccnc2)n[nH]c1=S | > 4 mM (inactive) |
| Cc1ccc2nc(SCC(=O)O)nc(C)c2c1 | > 4 mM (inactive) |
| O=C(O)c1cncc(-c2ccccc2)c1 | > 4 mM (inactive) |
| C=C[C@@](C)(O)CCC1C(=C)C[C@H](OC(C)=O)C2C(C)(C)CCCC12C (stereo not given in full) | > 4 mM (inactive) |
| O=C(CCc1n[nH]c(=O)[nH]c1=O)NCc1ccccc1 | > 4 mM (inactive) |
| CC(=O)OC[C@H]1O[C@@H](Oc2cc(OC(C)=O)c3c(=O)cc(-c4ccc(OC(C)=O)cc4)oc3c2)[C@H](OC(C)=O)[C@@H](OC(C)=O)[C@@H]1OC(C)=O | > 4 mM (inactive) |
| COc1ccc([C@@H](C)C(=O)c2ccc(O)cc2O)cc1 | > 4 mM (inactive) |
| O=c1c(O)c(-c2ccc(O)c(O)c2)oc2cc(O)ccc12 | > 4 mM (inactive) |
| Cc1cc(C(=O)N2CCN(c3ccccn3)CC2)no1 | > 4 mM (inactive) |
| CCCn1c(S(=O)(=O)O)nc2ccccc21 | > 4 mM (inactive) |
| COC(=O)Cc1cc(=O)n(-c2ccccc2)[nH]1 | > 4 mM (inactive) |
| O=c1[nH]c(=O)n(-c2ccc(F)cc2)c(O)c1/C=C1/C=CC=N1 | > 4 mM (inactive) |
| Cc1nc2ccc(NC(=O)N3CCOCC3)cc2s1 | > 4 mM (inactive) |
| O=c1[nH]cnc2nn(-c3ccccc3)nc12 | > 4 mM (inactive) |
| NC1=NC(=O)/C(=C\c2ccco2)S1 | > 4 mM (inactive) |
| COC(=O)c1c(SC)nc(-c2ccccc2)[nH]c1=O | > 4 mM (inactive) |
| CC(=O)O[C@@H]1CC2C(C)(CC[C@H](O)C2(C)C)C2CC[C@]3(C)C(=CC(=O)O[C@H]3c3ccoc3)C21C (stereo not given in full) | > 4 mM (inactive) |
| Cc1cc(C)n(CC(=O)NC2CCCCC2)n1 | > 4 mM (inactive) |
| Cc1cc(C)n(-c2ccc(Cl)nn2)n1 | > 4 mM (inactive) |
| COc1cc2c(cc1OC)[C@@H]1C(=O)c3ccc4c(c3O[C@@H]1CO2)CC(C(C)C)O4 (stereo not given in full) | > 4 mM (inactive) |
| COCC(=O)Nc1cccc(Br)c1 | > 4 mM (inactive) |

| SMILES | Kd |
| --- | --- |
| Cc1cc(NC(=O)NCCCSc2nncn2C)no1 | > 4 mM (inactive) |
| COc1cccc(-c2cc(=O)c3cc(OC)ccc3o2)c1 | > 4 mM (inactive) |
| O=c1c[n+]([O-])c2ccccc2n1OCc1ccccn1 | > 4 mM (inactive) |
| O=C(O)CC1C(=O)NCCN1Cc1ccccc1 (stereo not given) | > 4 mM (inactive) |
| Cc1ccc(NC(=O)C2CCN(S(C)(=O)=O)CC2)cc1 | > 4 mM (inactive) |
| CNC(=O)c1cc2cccc(OC)c2oc1=O | > 4 mM (inactive) |
| COc1ccc(-c2coc3cc(O)ccc3c2=O)cc1 | > 4 mM (inactive) |
| Nc1ccc(-n2cncn2)cc1 | > 4 mM (inactive) |
| CC(=O)O[C@@H]1CC2C(C)(C)[C@H](O)C[C@H](O)[C@]2(C)C2CC[C@@]3(C)C(=CC(=O)O[C@H]3c3ccoc3)[C@@]21C (stereo not given in full) | > 4 mM (inactive) |
| CSc1nnc(CN2CCSCC2)n1C | > 4 mM (inactive) |
| CN(C)S(=O)(=O)c1ccc(C(=O)NN)cc1 | > 4 mM (inactive) |
| O=c1nc(NCc2ccco2)sc2ncccc12 | > 4 mM (inactive) |
| COC(=O)c1sc(N)nc1C | > 4 mM (inactive) |
| O=C(O)c1cn(-c2ccccc2)nc1-c1ccncc1 | > 4 mM (inactive) |
| CN(C)c1ccc2c(=O)[nH][nH]c(=O)c2c1 | > 4 mM (inactive) |
| CSc1ccc(/C=c2\sc3ncnn3c2=O)cc1 | > 4 mM (inactive) |
| CNC(=S)Nc1ncn(Cc2cccc(F)c2)n1 | > 4 mM (inactive) |
| NC(=O)CC[C@H](N)C(=O)O | > 4 mM (inactive) |
| O=C(O)CS(=O)(=O)c1ccccc1 | > 4 mM (inactive) |
| NC(=O)N1CCc2ccccc21 | > 4 mM (inactive) |
| O=C1c2ccccc2C(=O)c2c1ccc(O)c2O | > 4 mM (inactive) |
| CC(C)CCn1cnc2c1c(=O)n(C)c(=O)n2C | > 4 mM (inactive) |
| OCc1snnc1-c1ccccc1 | > 4 mM (inactive) |
| Oc1ccc(C(=S)N2CCCCC2)cc1Cl | > 4 mM (inactive) |
